Data on eleven compounds can be found in patent US5118346A, “Biocidally active compounds” (Ciba-Geigy Corporation, priority 1988, dated 1992).

Like-named read-outs stand apart in the source and are kept apart here.

The subject of one experiment is Aspergillus niger. The experiment is described as follows: Determination of the MIC against fungi, agar incorporation test. Type of experiment: cell-based. Conditions: for MIC: read-out: MIC against fungi, strain A. The protocol:
(§1) Strains: A) Aspergillus niger, B) Sacharomyces cerevisiae, C) Penicillium funiculosum, D) Chaetomium globosum, E) Aureobasidium pullulans and F) Coniophora puteana.
(§2) The investigation is carried out by the known agar incorporation test in malt extract agar (Merck). For the inhibition, the various compounds are in each case added in an amount such that concentrations of 10, 50 and 100 mg/1 result in the agar. The concentrations (mg/1) required for inhibiting the growth of the fungi (starting from fungus spores dripped on) are illustrated in Table 2.

In another experiment the test system is Chaetomium globosum. The experiment is described as above. Type of experiment: cell-based. Conditions: for MIC: read-out: MIC against fungi, strain D. The protocol: as §1, §2
The test system of experiment [1] is Coniophora puteana. The experiment is described as above. Particulars: for MIC: read-out: MIC against fungi, strain F. Type of experiment: cell-based. The protocol: as §1, §2
The next experiment relates to Aureobasidium pullulans. The description is as above. Type of experiment: cell-based. Particulars: for MIC: read-out: MIC against fungi, strain E. Here is the method:
as §1
(§3) The investigation is carried out by the known agar incorporation test in malt extract agar (Merck).

The subject of another experiment is Penicillium funiculosum. The experiment is described as above. Type of experiment: cell-based. Particulars: for MIC: Talaromyces funiculosus, read-out: MIC against fungi, strain C. Here is the method: as §1, §3
In a further experiment the test system is Sacharomyces cerevisiae. The experiment is described as above. Type of experiment: cell-based. Conditions: for MIC: read-out: MIC against fungi, strain B. The protocol: as §1, §3
Another experiment deals with barnacles. Briefly: Anti-fouling paint exposure in the North Sea. Particulars: 61/2 weeks, 0 = completely covered with growth, 10 = completely free. Here is the method: (§4) To test the activity against growth on objects immersed in the sea, the compound according to Example 1 is incorporated into anti-fouling paints. An anti-fouling paint such as is known to the expert and which is based on vinyl chloride copolymer/rosin (2/1 part by weight) with a pigment volume concentration of about 40%, and a second anti-fouling paint of similar make-up but with a higher rosin content (vinyl chloride copolymer/rosin=1/1) are prepared. The compound according to Example 1 is incorporated into these paints, the paint is brushed onto specimen sheets and, after drying (10 days), the sheets are suspended in the North Sea. The corresponding paints but without adding of the product are exposed in the same way for comparison. On a rating scale of 0 (=completely covered with growth) to 10 (=completely free from growth), the following results are obtained after exposure for 61/2 weeks (growth by hydroids=HY; growth by barnacles=BA): […]

A further experiment concerns hydroids. The experiment is described as follows: Anti-fouling paint exposure in the North Sea. Conditions: 61/2 weeks, 0 = completely covered with growth, 10 = completely free. The protocol: as §4
Experiment [2] concerns mixture of algae Chlorella vulgaris, Chlorella spec. and Scenedesmus obliques. The experiment is described as follows: Algicide test in polyisobutylene roof sheeting. Particulars: for algae growth after 6 weeks: comparison film 2; for algae growth after 3 weeks: comparison film 2-3. Type of experiment: cell-based. The protocol:
To test the activity against attack by algae, various concentrations, which can be seen from Table 3, of the compound according to Example 1 are incorporated into roof sheeting consisting of polyisobutylene. A roof sheeting without biocide is investigated as a comparison.
A 1 cm^2 piece of film from each test strip is kept in water for 5 days, in each case placed on an algae agar plate and inoculated with 0.1 ml of a 1+1+1 mixture of 14-day cultures of the algae Chlorella vulgaris and Chlorella spec. (isolated from damage cases in practice) and Scenedesmus obliques, which had been diluted 1/10 in saline.
After 3 weeks, the plates are evaluated and the films are placed in fresh agar and inoculated again.
Evaluation of the growth after 3 and 6 weeks under artificial light is performed in accordance with the following scheme.
2=partial growth on the film
3=growth up to the edge of the film
4=inhibiting aerola around the film <5 mm
5=inhibiting aerola around the film >5 mm
Example 19 is repeated, except that instead of the stated concentrations of compound according to Example 1 alone, a combination of 1% by weight of the compound according to Example 1 and 0.07% by weight of 2-methylthio-4-t-butylamino-6-cyclopropylamino-s-triazine is used.

Experiment [3] deals with Coniophora puteana. The experiment is described as follows: Limit of activity against wood-destroying Basidiomycetes (EN 113). Also on record: species or system Coniophora puteana (Schumacher ex Fries) Karsten. Particulars: Coniophora puteana strain 91, pine, isopropanol/water (1:1), 16 weeks. The text has this:
(§5) Determination of the limit of the activity against wood-destroying Basidiomycetes bred on agar (in accordance with EN 113). The test methods described in this European Standard is a laboratory method which forms a basis for evaluation of the activity of a wood preservative against wood-destroying Basidiomycetes.
Coniophora puteana (Schumacher ex Fries) Karsten, strain FPRL 11E, for soft timbers=strain 91, Breeding of the strain and composition of the nutrient medium were as described in EN 113.
(§6) Solutions of isopropanol/water (1:1) containing 0.2%, 0.5%, 1%, 2% and 5% of active substance according to Example 1 are prepared.
(§7) The specimen woods of pine, nominal dimensions: 50 mm×25 mm×15 mm, are obtained and prepared as described in EN 113.
(§8) The impregnation according to EN 113 ensures complete thorough impregnation of the specimen woods with the wood preservative solution.
(§9) The amount of preservative absorbed is converted into weight per unit volume of the wood. […]
(§10) The limit of the activity of a wood preservative is determined by the two amounts of wood preservative which correspond to the lowest concentration which preserves the wood and the next lowest concentration in the series, at which the wood is no longer adequately preserved. […]

The next experiment has as its system Poria placenta. Described as above. Conditions: Poria placenta strain 96, pine, isopropanol/water (1:1), 16 weeks. Also on record: species or system Poria placenta (Fries) Cooke sensu. J. Eriksson.
Source text: as §5
Poria placenta (Fries) Cooke sensu. J. Eriksson, strain SPRL 280, for soft timbers=strain 96, Breeding of the strain and composition of the nutrient medium were as described in EN 113.
as §6, §7, §8, §9, §10

For a further experiment, the system named is Gleophyllum trabeum. The description is as above. Conditions: Gleophyllum trabeum strain 94, pine, 16 weeks. Also on record: species or system Gloeophyllum trabeum (Persoon ex Fries) Murrill.
Source text: as §5
Gloeophyllum trabeum (Persoon ex Fries) Murrill, strain […], for soft timbers=strain 94, Breeding of the strain and composition of the nutrient medium were as described in EN 113.
as §6, §7, §8, §9, §10

The next experiment concerns wood-destroying fungi. The experiment is described as follows: Limit of activity against wood-destroying Basidiomycetes (EN 113), summary.
Source text: as §5

Setting [4] is: malt extract agar, tested 10, 50, 100 mg/l.
[5] abbreviates: Penicillium funiculosum, malt extract agar, tested 10, 50, 100 mg/l.
The mark [6] stands for this setting: Sacharomyces cerevisiae, malt extract agar, tested 10, 50, 100 mg/l.

What is called MIC is the smallest concentration in the dilution series that meets the test's criterion for growth inhibition. Turning to `CCCCCCCCCCCCCC[P+](CCCC)(CCCC)CCCC` [Example 1, Tri-n-butyl-n-tetradecylphosphonium tetrafluoborate], the MIC amounted to 50 µg/mL in the experiment on Aspergillus niger (setting [4]), 50 µg/mL in the experiment with Aureobasidium pullulans (setting [4]), 10 µg/mL with Penicillium funiculosum (setting [5]) and 10 µg/mL with Sacharomyces cerevisiae (setting [6]). Moreover, the “MIC against fungi, strain D” value against Chaetomium globosum (setting [4]) was 10 µg/mL. In addition, in the experiment with Coniophora puteana [1] (setting [4]), the “MIC against fungi, strain F” value was 10 µg/mL. Further, the “growth by barnacles (BA), rating” value with barnacles (Vinyl/rosin 1:1 paint with additive, without additive BA 0) amounted to 10; in the experiment with barnacles (Vinyl/rosin 2:1 paint with additive, without additive BA 5), 8. Further, the “growth by hydroids (HY), rating” value turned out to be 4 with hydroids (Vinyl/rosin 1:1 paint with additive, without additive HY 0) and 8 with hydroids (Vinyl/rosin 2:1 paint with additive, without additive HY 5). The “algae growth after 6 weeks” value in [2] (0,1 % by weight in film), in experiment [2] (0,5 % by weight in film) and in experiment [2] (1 % by weight in film) was 4 (inhibiting aerola around the film <5 mm) in each case. Further, the “algae growth after 3 weeks” value in experiment [2] (0,1 % by weight in film), in experiment [2] (0,5 % by weight in film) and in experiment [2] (1 % by weight in film) was 4 (inhibiting aerola around the film <5 mm) throughout. In addition, the Effective concentration in the experiment on Coniophora puteana [3] was 0.5-1.0%; with Poria placenta, 1.0-2.0%; with Gleophyllum trabeum (isopropanol/water (1:1)), at most 0.2%. For the same compound, the “Take-up (limit of the activity)” value in the experiment with Gleophyllum trabeum is listed as at most 1.0 kg/m^3. In the experiment on wood-destroying fungi, the “activity against wood-destroying fungi” value was “highly effective”.

On to `CCCCCCCCCCCCCC[P+](CCCC)(CCCC)CCCC` [Example 2, Tri-n-butyl-n-tetradecylphosphonium hexafluophosphate], for which, in the experiment on Aspergillus niger (setting [4]), the “MIC against fungi, strain A” value worked out at 100 µg/mL. In addition, the “MIC against fungi, strain D” value in the experiment with Chaetomium globosum (setting [4]) was 100 µg/mL. The “MIC against fungi, strain F” value against Coniophora puteana [1] (setting [4]) came to 100 µg/mL. For the same compound, the “MIC against fungi, strain E” value with Aureobasidium pullulans (setting [4]) stood at 50 µg/mL. For the same compound, in the experiment on Penicillium funiculosum (setting [5]), the “MIC against fungi, strain C” value turned out to be 10 µg/mL. Besides, the “MIC against fungi, strain B” value with Sacharomyces cerevisiae (setting [6]) turned out to be 10 µg/mL.

Turning to `CCCCCCCCCCCC[P+](c1ccccc1)(c1ccccc1)c1ccccc1` [Example 3, Triphenyl-n-dodecylphosphonium tetrafluoborate], the MIC came to 100 µg/mL in the experiment with Aspergillus niger; 50 µg/mL with Chaetomium globosum; 50 µg/mL in the experiment on Coniophora puteana [1]; 10 µg/mL in the experiment on Aureobasidium pullulans; 10 µg/mL with Penicillium funiculosum; 50 µg/mL in the experiment on Sacharomyces cerevisiae.

For the compound `CCCCCCCCCCCCCC[N+](CCCC)(CCCC)CCCC` [Example 5, Tri-n-butyl-n-tetradecylammonium tetrafluoborate], the MIC in the experiment on Aspergillus niger was determined as 100 µg/mL; in the experiment on Chaetomium globosum (setting [4]), 50 µg/mL; with Coniophora puteana [1], 100 µg/mL; with Aureobasidium pullulans (setting [4]), 50 µg/mL; in the experiment with Penicillium funiculosum (setting [5]) it was 50 µg/mL; with Sacharomyces cerevisiae (setting [6]), 50 µg/mL.

For the compound `CCCCCCCCCCCC[N+](CCO)(CCO)Cc1ccccc1` [Example 6, Bis(hydroxyethyl)benzyl-n-dodecylammonium tetrafluoborate], the MIC in the experiment with Aspergillus niger is above 100 µg/mL; with Chaetomium globosum (setting [4]), 50 µg/mL; in the experiment on Coniophora puteana [1] (setting [4]), 50 µg/mL; in the experiment on Aureobasidium pullulans (setting [4]), 10 µg/mL; in the experiment on Penicillium funiculosum (setting [5]), 10 µg/mL; in the experiment with Sacharomyces cerevisiae (setting [6]) it was 50 µg/mL.

As to `CCCCCCCCCCCC[N+](CC)(CC)CC` [Example 7], the MIC was above 100 µg/mL in the experiment with Aspergillus niger (setting [4]); 100 µg/mL in the experiment with Chaetomium globosum (setting [4]); 50 µg/mL in the experiment with Coniophora puteana [1] (setting [4]); 50 µg/mL with Aureobasidium pullulans (setting [4]); 50 µg/mL in the experiment with Penicillium funiculosum (setting [5]); above 100 µg/mL with Sacharomyces cerevisiae (setting [6]).

As for `CCCCCCCCCCCCCC[N+](CC)(CC)CC` [Example 8], the MIC with Aspergillus niger (setting [4]), with Chaetomium globosum (setting [4]) and with Coniophora puteana [1] (setting [4]) was 50 µg/mL throughout.

In the case of `CCCCCCCCCCCCCCCCCC[N+](CC)(CC)CC` [Example 9], the MIC with Aspergillus niger (setting [4]) was above 100 µg/mL; with Chaetomium globosum (setting [4]), 50 µg/mL; in the experiment on Coniophora puteana [1] (setting [4]), 50 µg/mL; with Aureobasidium pullulans (setting [4]) it was 50 µg/mL; with Penicillium funiculosum (setting [5]) it was 50 µg/mL; with Sacharomyces cerevisiae (setting [6]), above 100 µg/mL.

Regarding `CCCCCCCCCCCCCC[N+](CCC)(CCC)CCC` [Example 10], the MIC was determined as 100 µg/mL in the experiment on Aspergillus niger (setting [4]); 50 µg/mL with Chaetomium globosum (setting [4]); 10 µg/mL with Coniophora puteana [1] (setting [4]); 10 µg/mL in the experiment with Aureobasidium pullulans (setting [4]); 50 µg/mL in the experiment on Penicillium funiculosum (setting [5]); 100 µg/mL with Sacharomyces cerevisiae (setting [6]).

For `CCCCCCCCCCCCCCCC[N+](CC)(CC)CC` [Example 13], the minimum inhibitory concentration (MIC) was 100 µg/mL in the experiment with Aspergillus niger (setting [4]); 100 µg/mL in the experiment on Chaetomium globosum (setting [4]); 10 µg/mL in the experiment with Coniophora puteana [1] (setting [4]); 50 µg/mL in the experiment on Aureobasidium pullulans (setting [4]); 10 µg/mL with Penicillium funiculosum (setting [5]); 100 µg/mL in the experiment on Sacharomyces cerevisiae (setting [6]).

As to `CCCCCCCCCCCC[N+]1(Cc2ccccc2)CCOCC1` [Example 14], the MIC in the experiment on Aspergillus niger was above 100 µg/mL; in the experiment with Chaetomium globosum, 100 µg/mL; in the experiment with Coniophora puteana [1] (setting [4]), 50 µg/mL; with Aureobasidium pullulans, 10 µg/mL; in the experiment on Penicillium funiculosum (setting [5]), 50 µg/mL; in the experiment with Sacharomyces cerevisiae it was above 100 µg/mL.
